Test results taken from US20070128217A1 (priority 2003, published 2007).

How the values were obtained:
[1] = system: rabbit serum obtained by immunizing a rabbit with the SARS-CoV strain Frankfurt 1; type: binding; set-up: Binding of a rabbit serum to linear peptides / Binding of a rabbit serum to looped peptides / Rabbit serum linear peptides / Rabbit serum looped peptides / Binding of a rabbit serum to linear peptides of protein N of SARS-CoV Urbani (Rabbit serum linear peptides) / Binding of a rabbit serum to looped/cyclic peptides of protein N of SARS-CoV Urbani (Rabbit serum looped peptides): unit not given here
[2] = system: antibodies in sera from SARS patients (sera 1a, 1b, 2, 6, 37, 62, London, SARS-yellow, SARS-green); type: binding, human; set-up: Binding of serum 6 to linear peptides of protein X1 of SARS-CoV Urbani / Binding of serum 37 to linear peptides of protein X1 of SARS-CoV Urbani / Binding of serum 6 to looped/cyclic peptide (PEPSCAN-ELISA) / Binding of serum 37 to looped/cyclic peptide (PEPSCAN-ELISA) / Binding of serum 37 to looped/cyclic peptides of protein X1 of SARS-CoV Urbani / Binding of serum 6 to linear peptides of protein X2 / Binding of serum 37 to linear peptides of protein X2 / Binding of serum 37 to looped/cyclic peptides of protein X2 of SARS-CoV Urbani / Binding of serum 6 to linear peptides of protein M of SARS-CoV Urbani / Binding of serum 37 to linear peptides of protein M of SARS-CoV Urbani / Binding of serum 6 to looped/cyclic peptides of protein M of SARS-CoV Urbani / Binding of serum 37 to looped/cyclic peptides of protein M of SARS-CoV Urbani / Binding of serum 6 to linear peptides of protein X3 of SARS-CoV Urbani / Binding of serum 37 to linear peptides of protein X3 of SARS-CoV Urbani / Binding of serum 37 to looped/cyclic peptides of protein X3 of SARS-CoV Urbani / Binding of serum 6 to linear peptides of protein X4 of SARS-CoV Urbani / Binding of serum 37 to linear peptides of protein X4 of SARS-CoV Urbani / Binding of serum 37 to looped/cyclic peptides of protein X4 of SARS-CoV Urbani / Binding of serum 6 to linear peptides of protein X5 of SARS-CoV Urbani / Binding of serum 37 to linear peptides of protein X5 of SARS-CoV Urbani / Binding of serum 37 to looped/cyclic peptides of protein X5 of SARS-CoV Urbani / Binding of serum 6 to linear peptides of protein N of SARS-CoV Urbani / Binding of serum 37 to linear peptides of protein N of SARS-CoV Urbani / Binding of serum 6 to linear peptide (PEPSCAN-ELISA) / Binding of serum 1a to looped/cyclic peptides of protein N of SARS-CoV Urbani / Binding of serum 1b to looped/cyclic peptides of protein N of SARS-CoV Urbani / Binding of serum 2 to looped/cyclic peptides of protein N of SARS-CoV Urbani / Binding of serum 6 to looped/cyclic peptides of protein N of SARS-CoV Urbani / Binding of serum 37 to looped/cyclic peptides of protein N of SARS-CoV Urbani / Binding of serum 62 to looped/cyclic peptides of protein N of SARS-CoV Urbani / Binding of serum London to looped/cyclic peptides of protein N of SARS-CoV Urbani / Binding of serum SARS-green to looped/cyclic peptides of protein N of SARS-CoV Urbani: unit not given here
[3] = system: recombinant human anti-SARS-CoV antibody 03-018; type: binding; set-up: Binding of antibody 03-018 to linear peptides of the N protein of SARS-CoV Urbani / Binding of antibody 03-018 to looped/cyclic peptides of the N protein of SARS-CoV Urbani: unit not given here
[4] = system: control sera (pooled serum of ten healthy LUMC hospital workers; commercial negative donor pooled serum from the Dutch bloodbank); type: binding, human; set-up: Binding of Control serum LUMC to linear peptides / Binding of Control serum Blood-bank to linear peptides / Binding of Control serum LUMC to looped peptides / Binding of Control Serum Blood-Bank to Looped peptides / Binding of Control serum LUMC to linear peptides of the protein M of SARS-CoV Urbani / Binding of Control serum Blood-bank to linear peptides of the protein M of SARS-CoV Urbani / Binding of Control serum LUMC to looped peptides of the protein M of SARS-CoV Urbani / Binding of Control Serum Blood-Bank to Looped peptides of the protein M of SARS-CoV Urbani: unit not given here

| Sequence | Binding of a rabbit serum to linear peptides of protein N of SARS-CoV Urbani (Rabbit serum linear peptides) [1] | Binding of a rabbit serum to looped/cyclic peptides of protein N of SARS-CoV Urbani (Rabbit serum looped peptides) [1] | Binding of serum 1a to looped/cyclic peptides of protein N of SARS-CoV Urbani [2] | Binding of serum 1b to looped/cyclic peptides of protein N of SARS-CoV Urbani [2] | Binding of serum 2 to looped/cyclic peptides of protein N of SARS-CoV Urbani [2] | Binding of serum 6 to looped/cyclic peptides of protein N of SARS-CoV Urbani [2] | Binding of serum 37 to looped/cyclic peptides of protein N of SARS-CoV Urbani [2] | Binding of serum 62 to looped/cyclic peptides of protein N of SARS-CoV Urbani [2] | Binding of serum London to looped/cyclic peptides of protein N of SARS-CoV Urbani [2] | Binding of serum SARS-green to looped/cyclic peptides of protein N of SARS-CoV Urbani [2] | Binding of serum SARS-yellow to looped/cyclic peptides of protein N of SARS-CoV Urbani [2] | Binding of antibody 03-018 to linear peptides of the N protein of SARS-CoV Urbani [3] | Binding of antibody 03-018 to looped/cyclic peptides of the N protein of SARS-CoV Urbani [3] | Binding of serum 1a to linear peptides of protein N of SARS-CoV Urbani [2] | Binding of serum 1b to linear peptides of protein N of SARS-CoV Urbani [2] | Binding of serum 2 to linear peptides of protein N of SARS-CoV Urbani [2] | Binding of serum 6 to linear peptides of protein N of SARS-CoV Urbani [2] | Binding of serum 37 to linear peptides of protein N of SARS-CoV Urbani [2] | Binding of serum 62 to linear peptides of protein N of SARS-CoV Urbani [2] | Binding of serum London to linear peptides of protein N of SARS-CoV Urbani [2] | further results |
| --- | --- | --- | --- | --- | --- | --- | --- | --- | --- | --- | --- | --- | --- | --- | --- | --- | --- | --- | --- | --- | --- |
| QQQGQTVTKKSAAEA | 0.0 | 0.0 | 0.5 | 0.3 | 0.7 | 0.5 | 0.6 | 0.7 | 0.6 | 0.9 | 0.6 | 0.1 | 0.2 | – | – | – | – | – | – | – | Binding of serum 1a to linear peptide (PEPSCAN-ELISA) [2]: 0.6; Binding of serum 1b to linear peptide (PEPSCAN-ELISA) [2]: 0.2; Binding of serum 2 to linear peptide (PEPSCAN-ELISA) [2]: 0.5; Binding of serum 6 to linear peptide (PEPSCAN-ELISA) [2]: 0.2; Binding of serum 37 to linear peptide (PEPSCAN-ELISA) [2]: 0.5; Binding of serum 62 to linear peptide (PEPSCAN-ELISA) [2]: 0.5; Binding of serum London to linear peptide (PEPSCAN-ELISA) [2]: 0.6; Binding of serum SARS-green to linear peptide (PEPSCAN-ELISA) [2]: 0.3; Binding of serum SARS-yellow to linear peptide (PEPSCAN-ELISA) [2]: 0.6; Binding of Control Serum Blood-Bank to Looped peptides [4]: 0.6; Binding of Control serum Blood-bank to linear peptides [4]: 0.6; Binding of Control serum LUMC to linear peptides [4]: 0.5; Binding of Control serum LUMC to looped peptides [4]: 0.6 |
| FSRQLQNSMSGASAD | 0.4 | 0.1 | 0.2 | 0.1 | 0.2 | 0.1 | 0.4 | 0.2 | 0.2 | 0.0 | 0.0 | 0.1 | 0.2 | 0.2 | 0.1 | 0.1 | 0.2 | 0.7 | 0.6 | 0.6 | Binding of serum SARS-green to linear peptides of protein N of SARS-CoV Urbani [2]: 0.6; Binding of serum SARS-yellow to linear peptides of protein N of SARS-CoV Urbani [2]: 0.4; Control Serum Blood-Bank Looped peptides [4]: 0.4; Control serum Blood-bank linear peptides [4]: 0.7; Control serum LUMC linear peptides [4]: 0.6; Control serum LUMC looped peptides [4]: 0.2 |
| QRQKKQPTVTLLPAA | 0.2 | 0.7 | – | – | – | – | – | – | – | – | – | 0.1 | 0.3 | 0.3 | 0.1 | 0.3 | 0.2 | 0.7 | 0.8 | 0.6 | Binding of serum SARS-green to linear peptides of protein N of SARS-CoV Urbani [2]: 0.7; Binding of serum SARS-yellow to linear peptides of protein N of SARS-CoV Urbani [2]: 0.6; Recognition of the peptide by sera of SARS-CoV infected individuals, and form (linear, looped/cyclic) in which it is recognized [2]: recognized in looped/cyclic form; Control Serum Blood-Bank Looped peptides [4]: 1.1; Control serum Blood-bank linear peptides [4]: 0.8; Control serum LUMC linear peptides [4]: 0.7; Control serum LUMC looped peptides [4]: 0.8 |
